Results taken from a melting point compilation (Tetko et al.; mined from patent text by program, amines drawn as free bases though some values may be those of a salt).

SMILES | melting point
CC(C)[C@H](NC(=O)N(C)Cc1ccccn1)C(=O)O | 145 °C
COC(=O)[C@H]1NC(=O)[C@H]1NC(=O)Cc1csc(NC(=O)CCl)n1 (relative stereo) | 120 to 122 °C
Cc1c(SCCCSc2ccc3ncc([N+](=O)[O-])n3n2)ccnc1CO | 127 to 129 °C
CCOc1c(NCc2ccc(Br)cc2CC)c(=O)c1=O | 217 to 224 °C
CCc1nc2c(-c3cc4ccoc4cc3C)ncnc2n1C(C1CC1)C1CC1 | 139 to 141 °C
Nc1cc(C=C2OC(=O)c3ccccc32)ccc1Cl | 148 to 153 °C
ClCCCCOc1ccc(C2c3ccc(OCc4ccccc4)cc3OCC2c2ccccc2)cc1 (configuration not stated) | 94 to 97.5 °C
O=C1c2ccccc2C(=O)N1CCCCCCc1cncnc1 | 124 to 126 °C
CCn1cc(CN(C(=O)C2CCCc3ccc(C)cc32)c2ccc(C(C)C)cc2)cn1 (configuration not stated) | 110 to 112 °C
O=C(O)Cc1c(C(=O)c2ccc(OC(F)(F)F)cc2)[nH]c2ccc(Cl)cc12 | 187 °C
O=C(O)Cc1cccc(Oc2ccccc2)c1O | 132 to 135 °C
CC1(C)SC2C(NC(=O)Nc3ccccc3)C(=O)N2C1c1nnn[nH]1 (configuration not stated) | 110 to 120 °C
CCOC(=O)N1CCc2nc3ccccc3c(Oc3ccccc3)c2CC1 | 150 °C
CC(=O)Oc1ccc(-c2cnc(C)[nH]c2=O)cc1OC(C)=O | 178 to 179 °C
OC(c1ccc(Cl)cc1)c1cccc(Br)c1 (configuration not stated) | 67 to 68 °C
C=CCC(C#N)(C#N)C(C)(C)c1cccc(Cl)c1 | 84.3 °C
CSc1ccc2c(=O)n([C@H](C)[C@](O)(Cn3cncn3)c3ccc(F)cc3F)cnc2c1 | 152 to 153 °C
Cc1[nH]c2ccc(Cl)cc2c1C(C(=O)C1(Cl)C=CC=CC1)c1cc(=O)n(C2CCCCC2)[nH]1 (configuration not stated) | 121 °C
N#CC(c1ccccc1)c1cn[nH]c1 (racemic) | 124 to 127 °C
CCCCc1nc(Sc2ccc(OC)cc2)c(C(=O)OCC)[nH]1 | 96 °C
O=C(c1ccc2c(=O)nc(-c3ccccn3)sc2c1)N1CCCC1 | 174 °C
COc1cccc2c1CCC(C(=O)O)C2C(=O)O (configuration not stated) | 200 to 201 °C
CN1C(=O)N(c2c(Cl)cccc2Cl)Cc2cnc(N)nc21 | 176 to 184 °C
COc1cc(OC)nc(Sc2nccc(-c3cccc(Cl)c3)c2C(=O)NS(C)(=O)=O)n1 | 54 to 58 °C
COc1cc(C=Cc2nc3c(s2)NCCCC3)ccc1O | 175 to 178 °C

SMILES | melting point
CCOC(=O)[C@H](CCc1ccccc1)N[C@@H](C)C(=O)N1N=C(c2ccc(SC)cc2)S[C@H]1C(=O)O | 163 to 164 °C
CC(=O)NNC(=S)Nc1cc(C)ccc1Cl | 145 to 157 °C
CC(C)(C)OC(=O)Nc1c(C#CBr)c(C#N)nn1-c1c(Cl)cc(C(F)(F)F)cc1Cl | 168 to 170 °C
O=c1oc(-c2ccccc2)cc(O)c1SCc1cccc(OCc2ccccc2)c1 | 140 to 141 °C
COc1c(C2CCN(CCCCNC(=O)c3ccc(-c4ccc(C#N)nc4)cc3)CC2)ccc2c1CCCC2 | 179 to 181 °C
CCN(CC)C(=O)c1c(C(C)C)cc(OC)cc1S(N)(=O)=O | 122 to 125 °C
COC(=O)N=C(NC(=O)Nc1ccc(Cl)c(C(=O)OC(C)C)c1)SC | 93 to 94 °C
COc1ccc(CC(CCCC(C#N)(c2ccc(OC)c(OC)c2)C(C)C)[N+](=O)[O-])cc1OC (configuration not stated) | 107 to 110 °C
CCCN(CCC)C1Cc2cc3c(=O)[nH][nH]c(=O)c3cc2C1 | > 300 °C
Cn1ccc2cc(NC(=O)c3cc4ccccc4n3Cc3cccc(C(F)(F)F)c3)ccc21 | 189 to 190 °C
O=C1CCc2ccc(OCCCCN3CCN(c4cccc5c4CCCC5=O)CC3)nc2N1 | 169 to 170 °C
O=C(CCCCCCNC(=O)c1ccc(C(F)(C(=O)Nc2cccc3cccnc23)C(=O)Nc2cccc3cccnc23)cc1)NO | 120 to 122 °C
Cn1cnc2c1c(=O)n(CCCO)c(=O)n2C | 139 to 140 °C
CCC1(C)SC(=NOC(=O)NC)N=C1C (configuration not stated) | 115 to 117 °C
NCC1Cc2cc(F)cc(-c3ccc(Cl)cc3Cl)c2O1 (configuration not stated) | 107 to 109 °C
ONCc1ccccc1 | 56 to 57 °C
COc1ccc(C(=O)NC(N)=NC(=O)Cn2c(Cl)ccc2Cl)cc1 | 215 to 217 °C
COC(=O)c1ccc(OC)c(NC(=N)c2ccc(F)cc2F)c1 | 120 °C
c1ccc(CSc2nc3nc(-c4ccccc4)cc(-c4ccccc4)n3n2)cc1 | 122 to 124 °C
CC(=O)N1C(=O)NC2(C1=O)C(=O)N(Cc1ccc(Cl)c(Cl)c1)c1ccccc12 (configuration not stated) | 185 to 187 °C
Nc1sc(-c2ccc(F)cc2)cc1C(=O)O | 172 to 174 °C
O=S1(=O)N=C(c2ccc(Cl)cc2)N(c2cc(Cl)cc(Cl)c2)c2ccncc21 | 284 to 286 °C
Cn1cc(C(=O)O)c(=O)c2cc3cc(F)c(N4CCN(O)CC4)cc3nc21 | 290 °C
O=C(O)CCC12CCCn3c1c(c1ccccc13)CCO2 (configuration not stated) | 153 to 155 °C
O=C(c1ccccc1)c1cc(Cl)ccc1-n1c(CN2C(=O)c3ccccc3C2=O)nnc1CN1C(=O)c2ccccc2C1=O | 250 to 251 °C

SMILES | melting point
O=C1CNc2ncc(I)cc2N1Cc1ccccc1OC(F)(F)F | 235 °C
Cc1ccccc1-c1ccc2c(c1)CCCc1c-2nc2ccc(F)cc2c1C(=O)O | > 300 °C
O=C1CC2CCc3cc(O)ccc3C2=NN1c1ccccn1 (configuration not stated) | 193 to 194 °C
COc1ccc(-n2c(-c3ccc(-c4ccc(-c5nc6c7ccccc7c7ccccc7c6n5-c5ccc(OC)cc5)cc4)cc3)nc3c4ccccc4c4ccccc4c32)cc1 | 403 °C
CCOc1cc2c(c3c1OC(C)(C)C3)C(c1cccc(C(=O)NC)c1)=NC(C)(C)C2=O | 233 to 235 °C
Cc1cc(-c2cnn3c(C(F)(F)F)cc(-c4ccc(C(F)(F)F)c(C(F)(F)F)c4)nc23)ccn1 | 223 °C
O=C(O)Cc1nn(-c2ccccn2)c2[nH]c3ccccc3c(=O)c12 | 229 to 231 °C
COc1cccc(C2(O)CCC(=O)CC2)c1 | 105 to 108 °C
COC(=O)C1=C(C)NC(C)=C(C(=O)OCCN2CCN(c3cccc(Cl)c3Cl)CC2)C1c1cccc([N+](=O)[O-])c1 (configuration not stated) | 189 to 190 °C
Cc1nc(-c2ccc(C(=O)N(C)c3ccc(Cl)cc3)cc2)sc1C(=O)O | 210 to 212 °C
O=C1NCCNN1c1cc(Cl)c(Sc2ccc(Cl)cc2)c(Cl)c1 | 242 to 243 °C
CC(O)c1nccc(=O)[nH]1 (configuration not stated) | 121 to 124 °C
CCOc1ccc2c(=O)cc(-c3ccccc3O)oc2c1 | 295 to 297 °C
CC(=O)OC1CC2(C)C(CCC2(O)C(C)=O)C2CCC3=CC(=O)CCC3(C)C12 (configuration not stated) | 160 °C
CC(C)C1(C)CC(=O)CC(C)(C)N1OC(C)(C)C#N (configuration not stated) | 32 to 44 °C
CC(C)(C)c1cc(C(=O)OCCC(=O)Oc2ccc(Cl)c([N+](=O)[O-])c2)cc(C(C)(C)C)c1O | 106 to 108 °C
O=C(NCc1ccc(Cl)cc1)c1cnc2cc(Cl)ccc2c1O | 237 to 239 °C
CCC(=O)N1N=C(c2ccc([N+](=O)[O-])c(C)c2)c2cc3c(cc2CC1(C)C#N)OCO3 (configuration not stated) | 191 to 193 °C
O=C(c1ccccc1)N1CCc2cc(CCl)ccc21 | 108 to 110 °C
CC12CCC3C4CCC(=O)C=C4CC(CCCCCCCCCCCO[Si](C)(C)C(C)(C)C)C3C1CCC2=O (configuration not stated) | 65 °C
O=C(O)c1cc(N=Cc2ccccc2)ccc1O | 213 to 215 °C
NCC1CCC(CNc2ncc3ncnc(Nc4ccc(F)c(Cl)c4)c3n2)CC1 (configuration not stated) | 155 to 160 °C
N#Cc1c(Cl)c2cc(F)cnc2[nH]c1=O | 272 °C
COC(=O)CCc1ccc(C(=O)O)cc1 | 146 to 148 °C
CC(=O)Oc1c(Sc2ccccc2)sc2ccccc12 | 88 to 90 °C

SMILES | melting point
Nc1ccc(-c2noc(-c3cnc4ccc(-c5ccc(Cl)cc5)cn34)n2)cn1 | 273 °C
CCCc1c(OCCCOc2ccc3c(c2CCC)OC(C)(CCC(=O)OC)CC3)ccc(C(C)=O)c1O (configuration not stated) | 53 to 55 °C
C=CCOc1cc(O)c2c(=O)cc(-c3ccc(OC)c(OCC=C)c3)oc2c1 | 122 °C
CC(=O)Nc1cnc(-c2ccccc2)nc1NCC(=O)N(C)c1ccccc1 | 200 to 201 °C
Nc1cc(C2SCCCS2)c(Cl)cc1F | 112 to 115 °C
O=C1CCC(=O)N1Cc1nc2sc3c(c2c(-c2ccc(OCc4ccccc4)cc2)c1Cl)CCNC3 | 247 to 248 °C
CCOC(=O)C(CC)c1ccc(N2Cc3ccccc3C2=N)cc1 (configuration not stated) | 157 to 159 °C
CCN(C)C(C)C(=O)Nc1cccc2c1C(=O)c1c(NC(=O)C(C)N(C)CC)cccc1C2=O (configuration not stated) | 129 to 130 °C
CCOC(=O)/C=C/c1ccc2c(c1)nc(N)c1nc(CC)n(CC3CCOCC3)c12 | 209 to 210 °C
CCc1ccc(OC)c(-c2cc(C(C)(C)C)c(O)c(C(C)(C)C)c2)c1 | 78 to 79 °C
C=CCN1C2C=C(c3cc4ccccc4s3)CC1CC2 (configuration not stated) | 60.6 to 62.6 °C
O=C1NC(=O)c2c(F)cccc21 | 176 to 179 °C
CCC1CCC2(C)C(=CCC3C4CC(O)C(=O)C4(C)CCC32)C1 (configuration not stated) | 166 to 168 °C
N#Cc1cc(C#N)cc(OC(C(=O)C2CC2)C(=O)C2CC2)c1 | 135 to 137 °C
COc1ccccc1-c1cccc2nc(Nc3cc(OC)c(OC)c(OC)c3)oc12 | 185 to 187 °C
O=C1CCC(N2Cc3c(OCc4ccc(Cn5cnnc5)cc4)cccc3C2=O)C(=O)N1 (configuration not stated) | 173 to 175 °C
COC(=O)C1Cc2c(cccc2C(C)C)C(=O)CS1 (configuration not stated) | 116 to 117 °C
COC(=O)c1cc(CCN(C)CCCC(C#N)(c2ccc(OC)c(OC)c2)C(C)C)ccc1OC (configuration not stated) | 76 to 81 °C
CCN1CCN(C(=O)c2ccc(-c3cc(-c4c(-c5cccc(C)n5)nc5c(C)cccn45)ccn3)cc2)CC1 | 212 °C
CNC(=NCCCSCn1cncc1C)NC#N | 156 to 158 °C
CCOC(=O)C=CC(=O)Nc1ccc2c(Nc3cccc(Br)c3)ncnc2c1 | > 260 °C
Nc1cnc(-c2cc(Cl)cc(Cl)c2Cl)c(N)n1 | 178 to 180 °C
